Results as given in PubChem BioAssay (NCI).
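48-hour exposure; five concentrations; linearly interpolated endpoints. GI50: concentration for 50% inhibition of growth. Definition used: TGI = concentration required for complete inhibition of growth.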

Columns and labels:
Test in all cases: DTP human tumour cell line panel, 48 h
[1] = system: 786-0 renal
[2] = system: A498 renal
[3] = system: A549 NSCLC
[4] = system: ACHN renal
[5] = system: BT-549 breast
[6] = system: CAKI-1 renal
[7] = system: CCRF-CEM leukemia
[8] = system: COLO 205 colon
[9] = system: DU-145 prostate
[10] = system: EKVX NSCLC
[11] = system: HCC-2998 colon
[12] = system: HCT-116 colon
[13] = system: HCT-15 colon
[14] = system: HL-60(TB) leukemia
[15] = system: HOP-62 NSCLC
[16] = system: HOP-92 NSCLC
[17] = system: HS 578T breast
[18] = system: HT29 colon
[19] = system: IGROV1 ovarian
[20] = system: K-562 leukemia
[21] = system: KM12 colon
[22] = system: LOX IMVI melanoma
[23] = system: M14 melanoma
[24] = system: MALME-3M melanoma
[25] = system: MCF7 breast
[26] = system: MDA-MB-231 breast
[27] = system: MDA-MB-435
[28] = system: MOLT-4 leukemia
[29] = system: NCI-H226 lung
[30] = system: NCI-H460 lung
[31] = system: NCI-H522 lung
[32] = system: NCI/ADR-RES ovarian
[33] = system: OVCAR-3 ovarian
[34] = system: OVCAR-4 ovarian
[35] = system: OVCAR-5 ovarian
[36] = system: OVCAR-8 ovarian
[37] = system: PC-3 prostate
[38] = system: RPMI-8226 leukemia
[39] = system: RXF 393 renal
[40] = system: SF-268 CNS
[41] = system: SF-295 CNS
[42] = system: SF-539 CNS
[43] = system: SK-MEL-2 melanoma
[44] = system: SK-MEL-28 melanoma
[45] = system: SK-MEL-5 melanoma
[46] = system: SK-OV-3 ovarian
[47] = system: SN12C renal
[48] = system: SNB-19 CNS
[49] = system: SNB-75 CNS
[50] = system: SR leukemia
[51] = system: SW-620 colon
[52] = system: T-47D breast
[53] = system: TK-10 renal
[54] = system: U251 CNS
[55] = system: UACC-257 melanoma
[56] = system: UACC-62 melanoma
[57] = system: UO-31 renal

COC(=O)N1c2ccc3c(nc(Cc4ccccc4)n3[C@H]3CCC[C@H](C(=O)O)C3)c2CC[C@@H]1C
GI50 [1]: 5.67 µM | TGI [1]: > 100 µM | GI50 [2]: 12.4 µM | TGI [2]: 52.7 µM | GI50 [3]: 27.6 µM | TGI [3]: > 100 µM | GI50 [4]: 17.2 µM | TGI [4]: > 100 µM | GI50 [5]: 48.5 µM | TGI [5]: > 100 µM | GI50 [6]: 1810 nM | TGI [6]: > 100 µM | GI50 [7]: 6.55 µM | TGI [7]: > 100 µM | GI50 [8]: 4.95 µM | TGI [8]: > 100 µM | GI50 [9]: 93.6 µM | TGI [9]: > 100 µM | GI50 [10]: 17.9 µM | TGI [10]: > 100 µM | GI50 [11]: 8.36 µM | TGI [11]: 27.1 µM | GI50 [12]: 17.6 µM | TGI [12]: > 100 µM | GI50 [13]: 16.2 µM | TGI [13]: > 100 µM | GI50 [14]: 3.18 µM | TGI [14]: > 100 µM | GI50 [15]: 11.3 µM | TGI [15]: > 100 µM | GI50 [16]: 1620 nM | TGI [16]: 11.8 µM | GI50 [17]: 3.25 µM | TGI [17]: > 100 µM | GI50 [18]: 5.44 µM | TGI [18]: > 100 µM | GI50 [19]: 20.8 µM | TGI [19]: > 100 µM | GI50 [20]: 5.03 µM | TGI [20]: > 100 µM | GI50 [21]: 16.4 µM | TGI [21]: > 100 µM | GI50 [22]: 1030 nM | TGI [22]: 30.2 µM | GI50 [23]: 5.86 µM | TGI [23]: > 100 µM | GI50 [24]: 6.13 µM | TGI [24]: > 100 µM | GI50 [25]: 115 nM | TGI [25]: > 100 µM | GI50 [26]: 15.8 µM | TGI [26]: > 100 µM | GI50 [27]: 8.59 µM | TGI [27]: > 100 µM | GI50 [28]: 14.3 µM | TGI [28]: > 100 µM | GI50 [29]: 14.1 µM | TGI [29]: > 100 µM | GI50 [30]: 23.4 µM | TGI [30]: > 100 µM | GI50 [31]: 11.3 µM | TGI [31]: > 100 µM | GI50 [32]: 65.2 µM | TGI [32]: > 100 µM | GI50 [33]: 13.3 µM | TGI [33]: > 100 µM | GI50 [34]: 6.84 µM | TGI [34]: > 100 µM | GI50 [35]: 30.9 µM | TGI [35]: > 100 µM | GI50 [36]: 28.2 µM | TGI [36]: > 100 µM | GI50 [37]: 5.68 µM | TGI [37]: > 100 µM | GI50 [38]: 3.84 µM | TGI [38]: 80.9 µM | GI50 [39]: 12.2 µM | TGI [39]: 91.1 µM | GI50 [40]: 27.7 µM | TGI [40]: > 100 µM | GI50 [41]: 11.7 µM | TGI [41]: > 100 µM | GI50 [42]: 15.7 µM | TGI [42]: > 100 µM | GI50 [43]: 34.3 µM | TGI [43]: > 100 µM | GI50 [44]: 13.2 µM | TGI [44]: > 100 µM | GI50 [45]: 10.2 µM | TGI [45]: > 100 µM | GI50 [46]: 16.9 µM | TGI [46]: > 100 µM | GI50 [47]: 17.3 µM | TGI [47]: > 100 µM | GI50 [48]: 12.6 µM | TGI [48]: > 100 µM | GI50 [49]: 431 nM | TGI [49]: > 100 µM | GI50 [50]: 13.8 µM | TGI [50]: > 100 µM | GI50 [51]: 46.4 µM | TGI [51]: > 100 µM | GI50 [52]: 3.17 µM | TGI [52]: > 100 µM | GI50 [53]: 5.7 µM | TGI [53]: > 100 µM | GI50 [54]: 17.1 µM | TGI [54]: > 100 µM | GI50 [55]: 14.6 µM | TGI [55]: > 100 µM | GI50 [56]: 2080 nM | TGI [56]: > 100 µM | GI50 [57]: 2870 nM | TGI [57]: > 100 µM
